Test results from patent publication US20240381872A1, “SUBSTITUTED 2,3-DIHYDRO[1,3]THIAZOLO[4,5-B]PYRIDINES, SALTS THEREOF AND THEIR USE AS HERBICIDALLY ACTIVE SUBSTANCES” (BAYER AKTIENGESELLSCHAFT, priority 2021, published 2024).

Legend:
Assay type in all cases: in vivo
[1] = test system: Digitaria sanguinalis (DIGSA); experiment: Herbicidal pre-emergence action, section A (Table A12); settings: application rate 1280 g/ha
Description: (§1) Seeds of mono- and dicotyledonous weed plants were sown in plastic pots (double sowings with one species of mono- and one species of dicotyledonous weed plants per pot), in sandy loam, and covered with soil. The compounds according to the invention, formulated in the form of wettable powders (WP) or as emulsifiable concentrates (EC), were applied to the surface of the covering soil as aqueous suspension or emulsion, with the addition of 0.5% of an additive, at an application rate of 600 l of water per hectare (converted). Following treatment, the pots were placed in a greenhouse and kept under optimum growth conditions for the test plants. The visual grading of the damage to the test plants was carried out after ca. 3 weeks in comparison to untreated controls (herbicidal effect in percent (%): 100% effect=plants have died off, 0% effect=as control plants).

[2] = test system: Matricaria inodora (MATIN); experiment: Herbicidal pre-emergence action, section A (Table A6); settings: application rate 1280 g/ha; visual grading after ca. 3 weeks vs untreated controls
Description: as §1

[3] = test system: Amaranthus retroflexus (AMARE); experiment: Herbicidal pre-emergence action, section A (Table A11); settings: application rate 320 g/ha
Description: as §1

Kochia scoparia (KCHSC) [4] = experiment: Herbicidal pre-emergence action, section A (Table A4); settings: visual grading after ca. 3 weeks vs untreated controls
Description: as §1

[5] = test system: Echinochloa crus-galli (ECHCG); experiment: Herbicidal pre-emergence action, section A (Table A3); settings: visual grading after ca. 3 weeks vs untreated controls
Description: as §1

Kochia scoparia (KCHSC) [6] = experiment: Herbicidal post-emergence action, section B (Table B4); settings: visual rating about 3 weeks after treatment vs untreated controls
Description: (§2) Seeds of mono- and dicotyledonous weed plants were placed in plastic pots in sandy loam soil (doubly sown with in each case one species of mono- or dicotyledonous weed plants per pot), covered with soil and cultivated in a greenhouse under controlled growth conditions. 2 to 3 weeks after sowing, the test plants were treated at the one-leaf stage. The compounds of the invention, formulated in the form of wettable powders (WP) or as emulsion concentrates (EC), were applied onto the green parts of the plants as aqueous suspension or emulsion with addition of 0.5% additive at a water application rate of 600 liters per hectare (converted). After the test plants had been kept in the greenhouse under optimum growth conditions for about 3 weeks, the activity of the preparations was rated visually in comparison to untreated controls. For example, 100% activity=the plants have died, 0% activity=like control plants.

[7] = test system: Amaranthus retroflexus (AMARE); experiment: Herbicidal post-emergence action, section B (Table B11); settings: visual rating about 3 weeks after treatment vs untreated controls
Description: as §2

Stellaria media (STEME) [8] = experiment: Herbicidal pre-emergence action, section A (Table A9); settings: application rate 1280 g/ha
Description: as §1

Poa annua (POAAN) [9] = experiment: Herbicidal pre-emergence action, section A (Table A7); settings: application rate 1280 g/ha, visual grading after ca. 3 weeks vs untreated controls
Description: as §1

Setaria viridis (SETVI) = experiment: Herbicidal pre-emergence action, section A (Table A8)
Description: as §1

[10] = test system: Abutilon theophrasti (ABUTH); experiment: Herbicidal post-emergence action, section B (Table B1); settings: application rate 1280 g/ha, rated visually after about 3 weeks
Description: as §2

Lolium rigidum (LOLRI) = experiment: Herbicidal pre-emergence action, section A (Table A5); settings: application rate 1280 g/ha, visual grading after ca. 3 weeks vs untreated controls
Description: as §1

Stellaria media (STEME) [11] = experiment: Herbicidal post-emergence action, section B (Table B9); settings: application rate 1280 g/ha, visual rating about 3 weeks after treatment vs untreated controls
Description: as §2

[12] = test system: Echinochloa crus-galli (ECHCG); experiment: Herbicidal post-emergence action, section B (Table B3); settings: Echinochloa crus-galli, 504 h, application rate 1280 g/ha, rated visually after about 3 weeks, read-out: post-emergence activity against ECHCG in %
Description: as §2

Poa annua (POAAN) [13] = experiment: Herbicidal post-emergence action, section B (Table B7); settings: Poa annua, post-emergence, 504 h; application rate 1280 g/ha; visual rating about 3 weeks after treatment vs untreated controls; read-out: post-emergence activity against POAAN in %
Description: as §2

Veronica persica (VERPE) [14] = experiment: Herbicidal pre-emergence action, section A (Table A10); settings: Veronica persica, 504 h, application rate 1280 g/ha, read-out: pre-emergence activity against VERPE in %
Description: as §1

Veronica persica (VERPE) [15] = experiment: Herbicidal post-emergence action, section B (Table B10); settings: Veronica persica, post-emergence, 504 h; application rate 1280 g/ha; visual rating about 3 weeks after treatment vs untreated controls; read-out: post-emergence activity against VERPE in %
Description: as §2

Cc1cccc(F)c1-c1nc2c(cc1Br)SCN2 [Example I-032]
pre-emergence activity against DIGSA in % [1]: 100% | pre-emergence activity against MATIN in % [2]: 90% | pre-emergence activity against AMARE in % [3]: 90% | pre-emergence activity against KCHSC in % (Kochia scoparia (KCHSC) [4]; application rate 1280 g/ha): 90% | pre-emergence activity against ECHCG in % ([5]; application rate 320 g/ha): 100% | post-emergence activity against KCHSC in % (Kochia scoparia (KCHSC) [6]; application rate 1280 g/ha): 90% | post-emergence activity against AMARE in % ([7]; application rate 1280 g/ha): 90% | pre-emergence activity against STEME in % (Stellaria media (STEME) [8]): 100% | pre-emergence activity against POAAN in % (Poa annua (POAAN) [9]): 100% | pre-emergence activity against SETVI in % (Setaria viridis (SETVI); application rate 320 g/ha): 100% | post-emergence activity against ABUTH in % [10]: 90% | pre-emergence activity against LOLRI in % (Lolium rigidum (LOLRI)): 100% | post-emergence activity against STEME in % (Stellaria media (STEME) [11]): 90%

CCCC(=O)N1CSc2cc(Br)c(-c3ccccc3Cl)nc21 [Example I-042, 1-[6-bromo-5-(2-chlorophenyl)[1,3]thiazolo[4,5-b]pyridin-3(2H)-yl]butan-1-one]
pest or weed control at 1280 g/ha ([1]; Digitaria sanguinalis, 504 h, read-out: pre-emergence activity against DIGSA in %): 100% | pest or weed control at 320 g/ha ([3]; Amaranthus retroflexus, 504 h, read-out: pre-emergence activity against AMARE in %): 90% | pest or weed control at 320 g/ha (Kochia scoparia (KCHSC) [4]; Bassia scoparia, pre-emergence, 504 h, application rate 320 g/ha, read-out: pre-emergence activity against KCHSC in %): 90% | pest or weed control at 1280 g/ha ([5]; Echinochloa crus-galli, pre-emergence, 504 h, application rate 1280 g/ha, read-out: pre-emergence activity against ECHCG in %): 100% | pest or weed control at 320 g/ha (Kochia scoparia (KCHSC) [6]; Bassia scoparia, post-emergence, 504 h, application rate 320 g/ha, read-out: post-emergence activity against KCHSC in %): 90% | pest or weed control at 320 g/ha ([7]; Amaranthus retroflexus, post-emergence, 504 h, application rate 320 g/ha, read-out: post-emergence activity against AMARE in %): 90% | pest or weed control at 1280 g/ha [12]: 90% | pest or weed control at 1280 g/ha (Poa annua (POAAN) [13]): 90% | pest or weed control at 1280 g/ha (Stellaria media (STEME) [8]; Stellaria media, 504 h, read-out: pre-emergence activity against STEME in %): 90% | pest or weed control at 1280 g/ha (Veronica persica (VERPE) [14]): 90% | pest or weed control at 1280 g/ha (Poa annua (POAAN) [9]; Poa annua, pre-emergence, 504 h, read-out: pre-emergence activity against POAAN in %): 100% | pest or weed control at 1280 g/ha (Veronica persica (VERPE) [15]): 90% | pest or weed control at 1280 g/ha (Setaria viridis (SETVI); Setaria viridis, 504 h, application rate 1280 g/ha, read-out: pre-emergence activity against SETVI in %): 100% | pest or weed control at 1280 g/ha ([10]; Abutilon theophrasti, 504 h, read-out: post-emergence activity against ABUTH in %): 90% | pest or weed control at 1280 g/ha (Lolium rigidum (LOLRI); Lolium rigidum, pre-emergence, 504 h, read-out: pre-emergence activity against LOLRI in %): 90% | pest or weed control at 1280 g/ha (Stellaria media (STEME) [11]; Stellaria media, post-emergence, 504 h, read-out: post-emergence activity against STEME in %): 90%
